How the values were obtained:
Format in all cases: cell-based
[1] = tested on: HDAC7 (Nur77 reporter gene); experiment: HDAC subtype reporter gene assay, Nur77-promoter luciferase in HeLa cells; conditions: Homo sapiens, M-HeLa, read-out: % of SAHA Response for HDAC7 at 10 μM (Nur77 reporter gene), 24 hours
Procedure: (§1) Measurement of inhibition of HDAC subtypes activity in cells by reporter gene assay: HDAC subtype selectivity inhibition assay of tested compounds was carried out by several reporter gene assays experiments. Briefly, HeLa cells were seeded in 96-well plates the day before transfection to give a confluence of 50-80%. Cells were transfected with one of reporter gene plasmids containing a promoter sequences or response elements upstream of a luciferase gene construct using FuGene6 transfection reagent according to the manufacturer's instructions (Roche). The promoters or response elements including p21-promoter, gdf11-promoter, MEF-binding element (MEF2), Nur77-promoter were fused upstream to the luciferase gene reporter construct. For normalizing the transfection efficiency, a GFP expression plasmid was cotransfected. Cells were allowed to express protein for 24 hours followed by addition of individual compounds or the vehicle (DMSO). 24 hours later, the cells were harvested and the luciferase assays were performed using the luciferase assay kit according to the manufacturer's instructions (Promega). To normalize the data from the luciferase assays, GFP activity from transfected cells was measured in a microtiter-plate reading fluorimeter capable of excitation at a wavelength at 485 nm and detection of emitted light at 527 nm.

[2] = tested on: HDAC class I (p21 reporter gene); experiment: HDAC subtype reporter gene assay, p21-promoter luciferase in HeLa cells; conditions: Homo sapiens, M-HeLa, read-out: % of SAHA Response for HDAC class I at 10 μM (p21 reporter gene), 24 hours
Procedure: as §1

[3] = target: T1, HDAC6 (α-tubulin acetylation) (Homo sapiens, UniProt Q9UBN7); experiment: ELISA assay of acetylation of α-tubulin in HeLa cells; conditions: M-HeLa, 24 hours
T1 construct: endogenous in cells; host or cells: HeLa
T1 sequence (Q9UBN7 1-1215): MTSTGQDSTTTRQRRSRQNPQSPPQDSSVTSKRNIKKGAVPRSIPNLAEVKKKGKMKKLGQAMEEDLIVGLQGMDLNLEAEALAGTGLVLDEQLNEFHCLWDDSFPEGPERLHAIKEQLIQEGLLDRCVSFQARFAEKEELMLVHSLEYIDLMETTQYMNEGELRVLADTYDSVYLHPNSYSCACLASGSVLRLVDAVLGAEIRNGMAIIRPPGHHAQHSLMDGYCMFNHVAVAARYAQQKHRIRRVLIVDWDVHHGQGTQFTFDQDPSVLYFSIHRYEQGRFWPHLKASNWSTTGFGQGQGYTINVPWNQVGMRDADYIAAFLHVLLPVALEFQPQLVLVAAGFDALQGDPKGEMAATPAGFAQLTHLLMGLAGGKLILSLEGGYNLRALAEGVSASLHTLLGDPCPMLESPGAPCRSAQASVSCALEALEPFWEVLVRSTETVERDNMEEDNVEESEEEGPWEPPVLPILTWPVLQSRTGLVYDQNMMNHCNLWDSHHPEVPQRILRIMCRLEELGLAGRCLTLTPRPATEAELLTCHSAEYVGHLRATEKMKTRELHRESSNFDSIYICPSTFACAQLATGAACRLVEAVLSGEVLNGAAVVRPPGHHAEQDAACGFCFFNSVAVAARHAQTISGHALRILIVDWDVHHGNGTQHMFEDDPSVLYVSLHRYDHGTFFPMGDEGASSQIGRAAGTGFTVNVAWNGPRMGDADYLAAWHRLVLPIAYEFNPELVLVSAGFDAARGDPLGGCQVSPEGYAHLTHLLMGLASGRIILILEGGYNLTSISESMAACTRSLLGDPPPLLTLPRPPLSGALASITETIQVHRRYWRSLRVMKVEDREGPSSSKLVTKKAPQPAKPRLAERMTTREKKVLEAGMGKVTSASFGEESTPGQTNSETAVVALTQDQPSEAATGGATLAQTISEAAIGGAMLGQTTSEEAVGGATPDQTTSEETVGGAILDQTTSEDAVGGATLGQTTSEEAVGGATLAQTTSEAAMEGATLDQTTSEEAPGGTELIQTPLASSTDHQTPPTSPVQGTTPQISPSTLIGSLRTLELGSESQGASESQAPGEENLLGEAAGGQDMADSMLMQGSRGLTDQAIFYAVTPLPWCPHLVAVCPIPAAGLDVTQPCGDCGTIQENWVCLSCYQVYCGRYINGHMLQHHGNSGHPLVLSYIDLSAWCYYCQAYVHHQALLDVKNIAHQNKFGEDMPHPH
Procedure: Measurement of acetylation activity in cells on substrates:
ELISA assay of acetylation of α-tubulin
This assay is used to measure in vivo inhibition of HDAC6 in a cytoblot assay. Materials and Reagent: • 1. 24-well tissue culture • 2. DMEM Medium containing 10% FBS • 3. 96-well white plate • 4. HeLa cell line • 5. M-PER Mammalian Protein Extraction Reagent (Pierce) • 6. Bradford assay reagent • 7. Anti-acetyl-tubulin (Upstate) • 8. HRP-labeled anti-mouse IgG (Upstate) • 9. Coating Buffer: 15 mM Na2CO3, 35 mM NaHCO3 (pH 9.6) • 10. 10×PBS: 0.58 M Na2HPO4, 0.17M NaH2PO4, 0.68M NaCl (pH 7.4) • 11. Wash Buffer:1×PBS containing 0.05% Tween-20 (PBST) • 12. Blocking Buffer:10 mg/ml bocine serum albumin (BSA) in PBS • 13. Antibody Dilution Buffer: 5 mg/ml BSA in PBST • 14. Enhanced chemiluminescence (ECL) (Amersham)
Procedure for performing the assay in 96-well plate: • 1. HeLa cells were seeded at a density of 60000 cells/500 μl/well in 24-well plate and incubated at 37° C. for 24 hours. • 2. Compounds were added and incubated for 24 hours at 37° C. • 3. Culture medium was removed, then washes the cells twice with ice-cold PBS. • 4. Add 100 μl/well of Protein Extraction Reagent and gently shake the mixture for 5 minutes. • 5. Collect the lysate to a 96-well plate respectively. Determine the concentration of protein by Bradford assay. • 6. Coat the wells of a 96-well white plate with 100 μl/well of 2.5 μg whole cell protein in Coating Buffer by incubating overnight at 4° C. • 7. Discard the uncoated proteins and wash the coated wells three times with 200 μl/well of PBST. • 8. Block coated wells by incubating the plate with 200 μl/well of Blocking Buffer for 1 hour at 37° C. • 9. Wells were aspirated and washed three times with 200 μl/well of PBST. • 10. After aspirating, 50 μl/well of Antibody Dilution Buffer containing anti-Ac-tubulin (1:1000) were added to each well and incubated for 2 hour at 37° C. • 11. Wells were aspirated and washed three times with 200 μl/well of PBST. • 12. 50 μl/well of Antibody Dilution Buffer containing HRP-labeled anti-mouse IgG (1:2000) were added to each well and incubated for 2 hour at 37° C. • 13. Wells were aspirated and washed three times with 200 μl/well of PBST. • 14. Wells were washed three times with 200 μl/well of purified water. • 15. Add 50 μl/well of ECL mixture, then read the plates on the plate reader.

Row | Compound | fold induction at 10 µM [3] | Emax at 10 µM [1] | Emax at 10 µM [2]
1 | O=C(CCCCCNC(=O)c1ccc(/C=C2\C(=O)Nc3ccc(F)cc32)cc1)NO [Example 41, 6-(4-((5-fluoro-2-oxoindolin-3-ylidene)methyl)benzamido)-N-hydroxyhexanamide] | 1.47 | 4% | 13%
2 | O=C(CCCCCNC(=O)c1cccc(/C=C2\C(=O)Nc3ccc(F)cc32)c1)NO [Example 46, 6-(3-((5-fluoro-2-oxoindolin-3-ylidene)methyl)benzamido)-N-hydroxyhexanamide] | 2.07 | 4% | 15%
3 | O=C(CCCCNC(=O)c1cccc(/C=C2\C(=O)Nc3ccc(F)cc32)c1)NO [Example 51, 5-(3-((5-fluoro-2-oxoindolin-3-ylidene)methyl)benzamido)-N-hydroxypentanamide] | 1.97 | 3% | 18%
4 | O=C(CCCCCCCNC(=O)c1cccc(/C=C2\C(=O)Nc3ccc(F)cc32)c1)NO [Example 56, 8-(3-((5-fluoro-2-oxoindolin-3-ylidene)methyl)benzamido)-N-hydroxyoctanamide] | 2.66 | 27% | 65%

Further lines, with some results ahead:

Row | fold induction at 10 µM [3] | Compound | Emax at 10 µM [1] | Emax at 10 µM [2]
5 | 2.66 | Nc1ccccc1NC(=O)CCCCCNC(=O)c1cccc(/C=C2\C(=O)Nc3ccc(F)cc32)c1 [Example 44, 6-(3-((5-fluoro-2-oxoindolin-3-ylidene)methyl)benzamido)-N-(2-aminophenyl)hexanamide] | 35% | 97%
6 | 1.64 | Nc1cc(F)ccc1NC(=O)CCCCCNC(=O)c1cccc(/C=C2\C(=O)Nc3ccc(F)cc32)c1 [Example 45, 6-(3-((5-fluoro-2-oxoindolin-3-ylidene)methyl)benzamido)-N-(2-amino-4-fluorophenyl)hexanamide] | 16% | 19%
7 | 2.39 | Nc1ccccc1NC(=O)CCCCNC(=O)c1cccc(/C=C2\C(=O)Nc3ccc(F)cc32)c1 [Example 49, 5-(3-((5-fluoro-2-oxoindolin-3-ylidene)methyl)benzamido)-N-(2-aminophenyl)pentanamide] | 8% | 18%
8 | 1.97 | Nc1cc(F)ccc1NC(=O)CCCCNC(=O)c1cccc(/C=C2\C(=O)Nc3ccc(F)cc32)c1 [Example 50, 5-(3-((5-fluoro-2-oxoindolin-3-ylidene)methyl)benzamido)-N-(2-amino-4-fluorophenyl)pentanamide] | 12% | 7%
9 | 2.91 | Nc1ccccc1NC(=O)CCCCCCCNC(=O)c1cccc(/C=C2\C(=O)Nc3ccc(F)cc32)c1 [Example 54, 8-(3-((5-fluoro-2-oxoindolin-3-ylidene)methyl)benzamido)-N-(2-aminophenyl)octanamide] | 25% | 72%
10 | 1.49 | Nc1cc(F)ccc1NC(=O)CCCCCCCNC(=O)c1cccc(/C=C2\C(=O)Nc3ccc(F)cc32)c1 [Example 55, 8-(3-((5-fluoro-2-oxoindolin-3-ylidene)methyl)benzamido)-N-(2-amino-4-fluorophenyl)octanamide] | 9% | 10%

— US7863315B2, “2-indolinone derivatives as selective histone deacetylase inhibitors” (Shenzhen Chipscreen Biosciences, Ltd., priority 2008, dated 2011)
